Active and inactive are the calls of the source. No cut-off for these calls is given here.
What was measured:
[1] = tested on: Mus musculus; assay: Toxicity in C57BL/6 mouse allografted with mouse MC38 cells assessed as weight loss at 5 to 20 mg/kg, po administered every day for 2 weeks; assay type: organism-based, MC-38; conditions: in vivo, 336 h, dose 5-20 mg/kg
[2] = tested on: MC-38; assay: Antitumor activity against mouse MC38 cells allografted in C57BL6 mouse assessed as decrease in Vegf mRNA expression at 10 to 20 mg/kg, po administered daily for 2 weeks by qPCR analysis; assay type: functional, organism-based; conditions: dose 10-20 mg/kg
[3] = tested on: MC-38; assay: Antitumor activity against mouse MC38 cells allografted in C57BL6 mouse assessed as decrease in chil3 mRNA expression at 10 to 20 mg/kg, po administered daily for 2 weeks by qPCR analysis; assay type: functional, organism-based; conditions: dose 10-20 mg/kg
[4] = tested on: BMDM; assay: (§1) Induction of conversion of M2-macrophages to the M1 phenotype in CM of MC38 cells treated C57BL/6 mouse BMDM cells assessed as down regulation of Retnla mRNA expression at 30 to 100 nM preincubated with culture medium of MC38 cells for 24 hrs followed by compound addition and measured after 24 hrs by qPCR analysis; assay type: functional, cell-based; conditions: dose 30-100 nM
[5] = tested on: MC-38; assay: Antitumor activity against mouse MC38 cells allografted in macrophage depleted C57BL6 mouse at 20 mg/kg, po administered daily for 2 weeks; assay type: functional, organism-based
[6] = tested on: MC-38; assay: Induction of conversion of M2-macrophages to the M1 phenotype in CM of MC38 cells treated C57BL/6 mouse BMDM cells transfected with CSF1R shRNA2 assessed as decrease in Nos2 mRNA expression measured after 24 hrs by qPCR analysis; assay type: functional, cell-based
[7] = tested on: Mus musculus; assay: Toxicity in C57BL/6 mouse allografted with mouse MC38 cells assessed as kidney damage at 5 to 20 mg/kg, po administered every day for 2 weeks by histopathological analysis; assay type: organism-based, MC-38; conditions: in vivo, 336 h, dose 5-20 mg/kg
[8] = target: T1, Macrophage colony-stimulating factor 1 receptor (Mus musculus) (UniProt P09581); assay: Binding affinity to CSF-1R in C57BL/6 mouse BMDM cells at 100 nM after 1 hr by SIP assay; assay type: cell-based
T1 sequence (whole entry): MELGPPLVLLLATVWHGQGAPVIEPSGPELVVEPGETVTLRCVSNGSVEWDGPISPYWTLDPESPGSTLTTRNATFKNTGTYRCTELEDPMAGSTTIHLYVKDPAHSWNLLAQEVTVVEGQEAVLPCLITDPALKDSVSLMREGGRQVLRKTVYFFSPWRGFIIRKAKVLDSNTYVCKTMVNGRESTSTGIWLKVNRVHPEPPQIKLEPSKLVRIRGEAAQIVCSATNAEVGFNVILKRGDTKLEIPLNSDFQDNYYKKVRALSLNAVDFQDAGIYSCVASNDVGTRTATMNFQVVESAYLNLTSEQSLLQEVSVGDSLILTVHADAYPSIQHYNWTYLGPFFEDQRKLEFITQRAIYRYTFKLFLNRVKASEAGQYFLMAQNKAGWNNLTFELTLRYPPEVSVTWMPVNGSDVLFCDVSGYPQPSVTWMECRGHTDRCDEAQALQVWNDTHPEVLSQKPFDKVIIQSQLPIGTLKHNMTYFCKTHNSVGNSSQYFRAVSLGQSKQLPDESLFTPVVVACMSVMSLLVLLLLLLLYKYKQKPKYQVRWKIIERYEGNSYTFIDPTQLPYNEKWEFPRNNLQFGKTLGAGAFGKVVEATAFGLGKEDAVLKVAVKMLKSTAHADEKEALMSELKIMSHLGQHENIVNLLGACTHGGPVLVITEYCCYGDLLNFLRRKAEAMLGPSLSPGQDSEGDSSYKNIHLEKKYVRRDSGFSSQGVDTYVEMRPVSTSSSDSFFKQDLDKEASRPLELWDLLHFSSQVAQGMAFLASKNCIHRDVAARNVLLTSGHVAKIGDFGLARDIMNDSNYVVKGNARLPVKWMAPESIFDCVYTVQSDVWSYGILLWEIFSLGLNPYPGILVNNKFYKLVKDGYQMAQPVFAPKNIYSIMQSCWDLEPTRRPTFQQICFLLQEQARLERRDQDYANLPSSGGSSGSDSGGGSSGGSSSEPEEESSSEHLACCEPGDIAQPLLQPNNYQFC

[9] = tested on: BMDM; assay: as §1, with “Vegf” for “Retnla”; assay type: functional, cell-based; conditions: dose 30-100 nM
[10] = tested on: MC-38; assay: Antitumor activity against mouse MC38 cells allografted in C57BL6 mouse assessed as decrease in Retnla mRNA expression at 10 to 20 mg/kg, po administered daily for 2 weeks by qPCR analysis; assay type: functional, organism-based; conditions: dose 10-20 mg/kg
[11] = tested on: THP-1; assay: Induction of conversion of M2-macrophages to the M1 phenotype in CM of HCT116 cells treated […]-differentiated human THP-1 cells assessed as upregulation of Il6 mRNA expression at 30 to 100 nM incubated for 24 hrs by qPCR analysis; assay type: functional, cell-based; conditions: dose 30-100 nM
[12] = tested on: MC-38; assay: Antitumor activity against mouse MC38 cells allografted in C57BL6 mouse assessed as decrease in Arg1 mRNA expression at 10 to 20 mg/kg, po administered daily for 2 weeks by qPCR analysis; assay type: functional, organism-based; conditions: dose 10-20 mg/kg
[13] = tested on: Mus musculus; assay: Toxicity in C57BL/6 mouse allografted with mouse MC38 cells assessed as heart damage at 5 to 20 mg/kg, po administered every day for 2 weeks by histopathological analysis; assay type: organism-based, MC-38; conditions: in vivo, 336 h, dose 5-20 mg/kg
[14] = tested on: THP-1; assay: Induction of conversion of M2-macrophages to the M1 phenotype in CM of HCT116 cells treated […]-differentiated human THP-1 cells assessed as down regulation of Vegf mRNA expression at 30 to 100 nM incubated for 24 hrs by qPCR analysis; assay type: functional, cell-based; conditions: dose 30-100 nM
[15] = tested on: THP-1; assay: Induction of conversion of M2-macrophages to the M1 phenotype in CM of HCT116 cells treated […]-differentiated human THP-1 cells assessed as down regulation of Il10 mRNA expression at 30 to 100 nM incubated for 24 hrs by qPCR analysis; assay type: functional, cell-based; conditions: dose 30-100 nM
[16] = tested on: MC-38; assay: Antiproliferative activity against mouse MC38 cells cultured with culture medium of M2-macrophages assessed as reduction in cell viability at 10 to 100 nM incubated for 24 hrs by CCK-8 assay; assay type: functional, cell-based; conditions: dose 10-100 nM
[17] = tested on: Mus musculus; assay: Toxicity in C57BL/6 mouse allografted with mouse MC38 cells assessed as lung damage at 5 to 20 mg/kg, po administered every day for 2 weeks by histopathological analysis; assay type: organism-based, MC-38; conditions: in vivo, 336 h, dose 5-20 mg/kg
[18] = tested on: BMDM; assay: as §1, with “Arg1” for “Retnla”; assay type: functional, cell-based; conditions: dose 30-100 nM
[19] = tested on: HCT-116; assay: Antitumor activity against human HCT-116 cells xenografted in nude BALB/c mouse assessed as reduction in tumor weight at 5 to 20 mg/kg, po administered daily for 2 weeks; assay type: functional, organism-based; conditions: dose 5-20 mg/kg
[20] = tested on: HCT-116; assay: Antiproliferative activity against human HCT-116 cells assessed as reduction in cell viability at 10 to 100 nM incubated for 24 hrs by CCK-8 assay; assay type: functional, cell-based; conditions: dose 10-100 nM
[21] = tested on: THP-1; assay: Induction of conversion of M2-macrophages to the M1 phenotype in CM of HCT116 cells treated […]-differentiated human THP-1 cells assessed as down regulation of Arg1 mRNA expression at 30 to 100 nM incubated for 24 hrs by qPCR analysis; assay type: functional, cell-based; conditions: dose 30-100 nM

With `Cc1[nH]c(/C=C2\C(=O)Nc3cc(NC(=O)Nc4cc(C(C)(C)C)on4)ccc32)c(C)c1NC(=O)CN1CCN(C)CC1` the Activity [1] was “Non-Toxic”, the Activity [2] was “Active” and the Activity [3] was “Active”. The Activity [4] was “Active”, the Activity [5] was “inactive” and the Activity [6] was “Active”. For the same molecule, the Activity [7] was “Non-Toxic”, the Activity [8] was “Active” and the Activity [9] was “Active”. For the same molecule, the Activity [10] was “Active”, the Activity [11] was “Active” and the Activity [12] was “Active”. The Activity [13] was “Non-Toxic”, the Activity [14] was “Active” and the Activity [15] was “Active”. The Activity [16] was “Active”, the Activity [17] was “Non-Toxic” and the Activity [18] was “Active”. For the same molecule, the Activity [19] was “inactive”, the Activity [20] was “inactive” and the Activity [21] was “Active”.
